{"source": "patent US20240254547A1", "about": "“HIGHLY ACCURATE […]” (KAO CORPORATION, priority 2018, published 2024)", "key": {"[1]": {"tested_on": "TA100 strain of Salmonella typhimurium (S. typhimurium) LT-2", "test": "Ames test (pre-incubation method), number of revertant colonies", "assay_type": "cell-based", "settings": "for Number of revertant colonies in Ames test, Mean: mean of three plates", "experimental": "(§1) Exposure of cells to ENU was performed in accordance with the pre-incubation method of the Ames test (K. Mortelmans et al. Mutat. Res.—Fundam. Mol. Mech. Mutagen. 455:29-60, 2000). TA100 strain was seeded in 2 mL of Nutrient Broth No. 2 (produced by Oxoid Limited), and subjected to shaking culture at 37° C. and 180 rpm for 4 hours to afford pre-culture solution with an O.D.660 value of 1.0 or higher. ENU (produced by Sigma-Aldrich Co. LLC.) was diluted with dimethylsulfoxide (DMSO; produced by Wako Pure Chemical Industries, Ltd.). Into test tubes, 100 μL of the ENU solution, 500 μL of 0.1 M phosphate buffer, and 100 μL of the pre-culture solution were added (amount of ENU: 62.5, 125, 250, 500, and 1,000 μg/tube), and the resultants were subjected to shaking culture at 100 rpm in a water bath at 37° C. for 20 minutes (ENU group). For a control group, 100 μL of solvent (DMSO) was added instead of the ENU solution. After shaking culture for 20 minutes, the test tubes each containing a culture solution were taken out of the water bath, and 50 μL of each culture solution was added to 2 mL of Nutrient Broth solution aliquoted in advance, and the resultant was further cultured in an incubator at 37° C. and 180 rpm for 14 hours, from which the bacterial suspensions were then collected and centrifuged at 7,500 rpm for 5 minutes, and the supernatants were removed to collect the bacterial cells.\nFor the Ames test, a bacterial suspension exposed to ENU by using the pre-incubation method was produced under the above-described conditions, and 2 mL of top agar (containing 1% NaCl, 1% agar, 0.05 mM histidine, and 0.05 mM biotine) warmed to 45° C. was added thereto and the resultant was suspended by using a Vortex, and poured onto a minimal glucose agar medium (Tesmedia® AN; produced by Oriental Yeast Co., Ltd.) to form a layer. The resulting plate was subjected to culturing at 37° C. for 48 hours, and the number of colonies observed was counted."}, "[2]": {"tested_on": "Genomic DNA from TA100 strain of Salmonella typhimurium (S. typhimurium) LT-2", "test": "Genomic mutation analysis of mutagen-exposed TA100 strain by sequencing with consensus read sequences considering complementary strands", "assay_type": "cell-based", "settings": "ENU group", "experimental": "as §1\nFrom the bacterial cells obtained in 1) (control group and ENU group), total DNA was collected by using a DNeasy Blood & Tissue Kit (produced by QIAGEN) in accordance with the recommended protocol. The double-stranded DNA concentration of each DNA sample obtained was measured by using a Qubit3.0 Fluorometer (produced by Thermo Fisher Scientific) with a Qubit™ dsDNA BR Assay Kit attached thereto.\nFrom each DNA sample (control group and ENU group) after being subjected to concentration measurement in 2), a plurality of samples each of which was to give 100 ng of DNA were prepared, and each sample was fragmented into pieces having a length of approximately 350 bp on average by using a DNA Shearing System ME220 (produced by Covaris Inc.) in accordance with the recommended protocol. The fragmented DNA obtained was subjected to library preparation by using a TruSeq Nano DNA Library Prep Kit (produced by Illumina, Inc., hereinafter abbreviated as TruSeq) in accordance with the recommended protocol.\nIn library preparation, the DNA fragments obtained were each labeled with adapter sequences each including a label sequence at a terminal, as described in Example 1. The resultant was subjected to PCR under different conditions listed in Table 1 to prepare libraries for sequencing, thus preparing labeled libraries for sequencing with different conditions. Adapter sequences attached to the TruSeq from Illumina, Inc. were used. […] Thus, one of two adapters was bound to each fragment in each library. […] Each of the resulting ligation reaction solutions was purified in accordance with the recommended protocol, and then subjected to concentration measurement for ligation products by using a High Sensitivity D5000 Kit in an Agilent 4200 TapeStation (produced by Agilent Technologies). […] The mixed solution obtained was subjected to purification through PCR in accordance with the recommended protocol. To adjust difference in amount of input DNA in PCR, each sample was amplified through PCR cycles the number of which is shown in Table 1 to adjust the amount of DNA in the library.\nEach of the libraries prepared in 3) was subjected to sequencing by using a HiSeq 2500 (produced by Illumina, Inc.), where the read length was set to 2*125 bp for Library Nos. 1 to 8 shown in Table 1, and to 2*100 bp for Library Nos. 9 to 14. Sequencing data of approximately 10 Gbp were acquired on average per library.\nRaw read sequences acquired through sequencing were edited and subjected to mutation analysis in accordance with the analysis flow illustrated above in Schematic Diagram 4. […]"}}, "data": [{"smiles": "CCN(N=O)C(N)=O", "note": "[ENU, ethylnitrosourea]", "values": [{"measurement": "Number of revertant colonies after exposure to ENU versus DMSO control", "setting": "[1]; 62.5 to 1,000 μg/plate", "result": "increase"}, {"measurement": "Number of revertant colonies in Ames test, Mean", "setting": "[1]; ENU 62.5 μg/plate", "result": 207.3}, {"measurement": "Number of revertant colonies in Ames test", "setting": "[1]; ENU 62.5 μg/plate, plate 1", "result": 220}, {"measurement": "Number of revertant colonies in Ames test", "setting": "[1]; ENU 62.5 μg/plate, plate 2", "result": 192}, {"measurement": "Number of revertant colonies in Ames test", "setting": "[1]; ENU 62.5 μg/plate, plate 3", "result": 210}, {"measurement": "Number of revertant colonies in Ames test, Mean", "setting": "[1]; ENU 125 μg/plate", "result": 381.3}, {"measurement": "Number of revertant colonies in Ames test", "setting": "[1]; ENU 125 μg/plate, plate 1", "result": 430}, {"measurement": "Number of revertant colonies in Ames test", "setting": "[1]; ENU 125 μg/plate, plate 2", "result": 391}, {"measurement": "Number of revertant colonies in Ames test", "setting": "[1]; ENU 125 μg/plate, plate 3", "result": 323}, {"measurement": "Number of revertant colonies in Ames test, Mean", "setting": "[1]; ENU 250 μg/plate", "result": 1389.0}, {"measurement": "Number of revertant colonies in Ames test", "setting": "[1]; ENU 250 μg/plate, plate 1", "result": 1482}, {"measurement": "Number of revertant colonies in Ames test", "setting": "[1]; ENU 250 μg/plate, plate 2", "result": 1359}, {"measurement": "Number of revertant colonies in Ames test", "setting": "[1]; ENU 250 μg/plate, plate 3", "result": 1326}, {"measurement": "Number of revertant colonies in Ames test, Mean", "setting": "[1]; ENU 500 μg/plate", "result": 3960.7}, {"measurement": "Number of revertant colonies in Ames test", "setting": "[1]; ENU 500 μg/plate, plate 1", "result": 4095}, {"measurement": "Number of revertant colonies in Ames test", "setting": "[1]; ENU 500 μg/plate, plate 2", "result": 4006}, {"measurement": "Number of revertant colonies in Ames test", "setting": "[1]; ENU 500 μg/plate, plate 3", "result": 3751}, {"measurement": "Number of revertant colonies in Ames test, Mean", "setting": "[1]; ENU 1000 μg/plate", "result": 2534.0}, {"measurement": "Number of revertant colonies in Ames test", "setting": "[1]; ENU 1000 μg/plate, plate 1", "result": 1659}, {"measurement": "Number of revertant colonies in Ames test", "setting": "[1]; ENU 1000 μg/plate, plate 2", "result": 3206}, {"measurement": "Number of revertant colonies in Ames test", "setting": "[1]; ENU 1000 μg/plate, plate 3", "result": 2737}, {"measurement": "GC to AT mutation frequency", "setting": "[2]; 10 Gbp sequencing data, Library No. 1, PCR input DNA 20000 amol", "result": "10.48 /10^5 bp"}, {"measurement": "GC to AT mutation frequency", "setting": "[2]; 10 Gbp sequencing data, Library No. 4, PCR input DNA 2500 amol", "result": "37.70 /10^5 bp"}, {"measurement": "GC to AT mutation frequency", "setting": "[2]; 10 Gbp sequencing data, Library No. 5, PCR input DNA 1250 amol", "result": "46.50 /10^5 bp"}, {"measurement": "GC to AT mutation frequency", "setting": "[2]; 10 Gbp sequencing data, Library No. 6, PCR input DNA 625 amol", "result": "55.30 /10^5 bp"}, {"measurement": "GC to AT mutation frequency", "setting": "[2]; 10 Gbp sequencing data, Library No. 7, PCR input DNA 313 amol", "result": "56.57 /10^5 bp"}, {"measurement": "GC to AT mutation frequency", "setting": "[2]; 10 Gbp sequencing data, Library No. 8, PCR input DNA 156 amol", "result": "60.42 /10^5 bp"}, {"measurement": "GC to AT mutation frequency", "setting": "[2]; 10 Gbp sequencing data, Library No. 9, PCR input DNA 156 amol", "result": "61.01 /10^5 bp"}, {"measurement": "GC to AT mutation frequency", "setting": "[2]; 10 Gbp sequencing data, Library No. 10, PCR input DNA 78 amol", "result": "63.62 /10^5 bp"}, {"measurement": "GC to AT mutation frequency", "setting": "[2]; 10 Gbp sequencing data, Library No. 11, PCR input DNA 39 amol", "result": "63.38 /10^5 bp"}, {"measurement": "GC to AT mutation frequency", "setting": "[2]; 10 Gbp sequencing data, Library No. 12, PCR input DNA 20 amol", "result": "63.89 /10^5 bp"}, {"measurement": "GC to AT mutation frequency", "setting": "[2]; 10 Gbp sequencing data, Library No. 13, PCR input DNA 10 amol", "result": "63.35 /10^5 bp"}, {"measurement": "GC to AT mutation frequency", "setting": "[2]; 10 Gbp sequencing data, Library No. 14, PCR input DNA 5 amol", "result": "60.05 /10^5 bp"}, {"measurement": "Frequency of GC→AT mutation compared with the other mutation patterns", "setting": "[2]; 10 Gbp sequencing data, each library", "result": "highest"}, {"measurement": "Relative mutation frequency to 20 amol (GC to AT)", "setting": "[2]; Library No. 1, PCR input DNA 20000 amol", "result": 16.41}, {"measurement": "Relative mutation frequency to 20 amol (GC to AT)", "setting": "[2]; Library No. 4, PCR input DNA 2500 amol", "result": 59.01}, {"measurement": "Relative mutation frequency to 20 amol (GC to AT)", "setting": "[2]; Library No. 5, PCR input DNA 1250 amol", "result": 72.79}, {"measurement": "Relative mutation frequency to 20 amol (GC to AT)", "setting": "[2]; Library No. 6, PCR input DNA 625 amol", "result": 86.56}, {"measurement": "Relative mutation frequency to 20 amol (GC to AT)", "setting": "[2]; Library No. 7, PCR input DNA 313 amol", "result": 88.55}, {"measurement": "Relative mutation frequency to 20 amol (GC to AT)", "setting": "[2]; Library No. 8, PCR input DNA 156 amol", "result": 94.57}, {"measurement": "Relative mutation frequency to 20 amol (GC to AT)", "setting": "[2]; Library No. 9, PCR input DNA 156 amol", "result": 95.50}, {"measurement": "Relative mutation frequency to 20 amol (GC to AT)", "setting": "[2]; Library No. 10, PCR input DNA 78 amol", "result": 99.59}, {"measurement": "Relative mutation frequency to 20 amol (GC to AT)", "setting": "[2]; Library No. 11, PCR input DNA 39 amol", "result": 99.20}, {"measurement": "Relative mutation frequency to 20 amol (GC to AT)", "setting": "[2]; Library No. 12, PCR input DNA 20 amol (reference)", "result": 100.00}, {"measurement": "Relative mutation frequency to 20 amol (GC to AT)", "setting": "[2]; Library No. 13, PCR input DNA 10 amol", "result": 99.16}, {"measurement": "Relative mutation frequency to 20 amol (GC to AT)", "setting": "[2]; Library No. 14, PCR input DNA 5 amol", "result": 94.00}]}]}
